In patent publication US12331026B2 (NiKang Therapeutics, Inc., priority 2022, dated 2025):

Biological target: T1, CDK2 (Homo sapiens, UniProt P24941)
T1 construct: endogenous in cells; host or cells: OVCAR3 cells
Test: Phospho-RB measurement in OVCAR3 cells (HTRF phospho-RB S807/811)
Format: cell-based
Conditions: phosphorylation of RB protein at S807/811, HTRF, 24 h compound treatment, 0.3 to 10,000 nM, read-out: pRb (uM)
Experimental: The ability of compounds of Formula (I) to inhibit CDK2 was determined in OVCAR3 cells. Phosphorylation of RB protein at S807/811 were measured using HTRF phospho-RB cellular kits (Cat #64RBS807PEG) from Cisbio.
On Day 1, OVCAR3 cells were seeded into 96-well tissue-culture treated plates at 20,000 cells/well in 200 μL and incubated overnight at 37° C. in CO2 atmosphere. On Day 2, the cells were treated with test compounds at concentrations from 0.3 to 10,000 nM using HP D300 digital dispenser. Twenty-four hours after compound treatment, cell culture media was removed by flicking the plate and tapping the plate against clean paper towel. Immediately 30 μL 1× lysis buffer was supplemented from the kit and the plate was incubated at room temperature on shaker for 30 min. After homogenization by pipetting up and down, 8 μL cell lysate from 96-well cell culture plate was transferred to 384-well small volume white detection plate. 2 μL premixed detection solution was added and the plate was covered with sealer. To prepare the detection solution, d2 conjugated-phospho-RB antibody and Eu-cryptate conjugated phosphor-RB antibody were diluted into detection buffer following manufacturer's instruction.
Detection plates were incubated for 4 h at room temperature and read on ClarioStar (BMG Labtech) in TR-FRET mode ([…]). The TR-FRET ratio (665 nM1/620 nM) was plotted against the compound concentration and normalized to DMSO controls. Half maximal inhibition concentration (IC50) values are calculated with a four-parameter logistic fit using GraphPad Prism (version 8; La Jolla, CA).

First: O=S1(=O)C[C@@H]2[C@H](C1)[C@@H]2Nc1nccc(-c2sc(C34CCC(CC3)CC4)nc2-c2cccc(NS(=O)(=O)c3c(F)cccc3F)c2F)n1 [Example 119, N-(3-(2-(bicyclo[2.2.2]octan-1-yl)-5-(2-(((1R,5S,6s)-3,3-dioxido-3-thiabicyclo[3.1.0]hexan-6-yl)amino)pyrimidin-4-yl)thiazol-4-yl)-2-fluorophenyl)-2,6-difluorobenzenesulfonamide]
Second: O=S1(=O)C[C@@H]2[C@H](C1)[C@H]2Nc1nccc(-c2sc(N3C4CCC3CC(F)(F)C4)nc2-c2cccc(NS(=O)(=O)c3c(F)cccc3F)c2F)n1 [Example 115, N-(3-(2-(3,3-difluoro-8-azabicyclo[3.2.1]octan-8-yl)-5-(2-(((1R,5S,6r)-3,3-dioxido-3-thiabicyclo[3.1.0]hexan-6-yl)amino)pyrimidin-4-yl)thiazol-4-yl)-2-fluorophenyl)-2,6-difluorobenzenesulfonamide]
The IC50 of the first is 27-fold higher: 1.34 µM for the first, 0.05 µM for the second.

First: O=S1(=O)CC2(CC(Nc3nccc(-c4sc(N5C6CCC5COC6)nc4-c4cccc(NS(=O)(=O)c5c(F)cccc5F)c4F)n3)C2)C1 [Example 2, N-(3-(2-(3-oxa-8-azabicyclo[3.2.1]octan-8-yl)-5-(2-((2,2-dioxido-2-thiaspiro[3.3]heptan-6-yl)amino)pyrimidin-4-yl)thiazol-4-yl)-2-fluorophenyl)-2,6-difluorobenzenesulfonamide]
Second: O=S1(=O)CC2(CC(Nc3nccc(-c4sc(N5C6CCC5CC(F)(F)C6)nc4-c4cccc(NS(=O)(=O)c5c(F)cccc5F)c4F)n3)C2)C1 [Example 12, N-(3-(2-(3,3-difluoro-8-azabicyclo[3.2.1]octan-8-yl)-5-(2-((2,2-dioxido-2-thiaspiro[3.3]heptan-6-yl)amino)pyrimidin-4-yl)thiazol-4-yl)-2-fluorophenyl)-2,6-difluorobenzenesulfonamide]
The IC50 of the first is 2.2-fold higher: 0.15 µM for the first, 0.068 µM for the second. The second is the more potent here.

`O=S1(=O)CC2(CC(Nc3nccc(-c4sc(C5(C(F)(F)F)CCC5)nc4-c4cccc(NS(=O)(=O)c5c(F)cccc5C(F)(F)F)c4F)n3)C2)C1` [Example 84, N-(3-(5-(2-((2,2-dioxido-2-thiaspiro[3.3]heptan-6-yl)amino)-pyrimidin-4-yl)-2-(1-(trifluoromethyl)cyclobutyl)thiazol-4-yl)-2-fluorophenyl)-2-fluoro-6-(trifluoromethyl)benzenesulfonamide] and `O=S1(=O)CC2(CC(Nc3nccc(-c4sc(C5(C(F)F)CCC5)nc4-c4cccc(NS(=O)(=O)c5c(F)cccc5C(F)(F)F)c4F)n3)C2)C1` [Example 83, N-(3-(2-(1-(difluoromethyl)cyclobutyl)-5-(2-((2,2-dioxido-2-thiaspiro[3.3]heptan-6-yl)amino)pyrimidin-4-yl)thiazol-4-yl)-2-fluorophenyl)-2-fluoro-6-(trifluoromethyl)benzenesulfonamide] are within 1.5-fold of each other in IC50: 0.03 µM for the first, 0.04 µM for the second.

Going from `O=S1(=O)C[C@@H]2[C@H](C1)[C@@H]2Nc1nccc(-c2sc(N3C4CCC3CN(C3CC(F)(F)C3)C4)nc2-c2cccc(NS(=O)(=O)c3c(F)cccc3F)c2F)n1` [Example 106, N-(3-(2-(3-(3,3-difluorocyclobutyl)-3,8-diazabicyclo[3.2.1]octan-8-yl)-5-(2-(((1R,5S,6s)-3,3-dioxido-3-thiabicyclo[3.1.0]hexan-6-yl)amino)pyrimidin-4-yl)thiazol-4-yl)-2-fluorophenyl)-2,6-difluorobenzenesulfonamide] to `O=S1(=O)CC(N2CC3CCC(C2)N3c2nc(-c3cccc(NS(=O)(=O)c4c(F)cccc4F)c3F)c(-c3ccnc(NC4CC5(C4)CS(=O)(=O)C5)n3)s2)C1` [Example 45, N-(3-(5-(2-((2,2-dioxido-2-thiaspiro[3.3]heptan-6-yl)amino)-pyrimidin-4-yl)-2-(3-(1,1-dioxidothietan-3-yl)-3,8-diazabicyclo[3.2.1]octan-8-yl)thiazol-4-yl)-2-fluorophenyl)-2,6-difluorobenzenesulfonamide], the IC50 rises from 0.68 µM to 4.14 µM (6.1-fold). The first is the more potent here.

Compared with `O=S1(=O)CCC(N2CC3CCC(C2)N3c2nc(-c3cccc(NS(=O)(=O)c4c(F)cccc4F)c3F)c(-c3ccnc(NC4CC5(C4)CS(=O)(=O)C5)n3)s2)CC1` [Example 38, N-(3-(5-(2-((2,2-dioxido-2-thiaspiro[3.3]heptan-6-yl)amino)-pyrimidin-4-yl)-2-(3-(1,1-dioxidotetrahydro-2H-thiopyran-4-yl)-3,8-diazabicyclo[3.2.1]octan-8-yl)thiazol-4-yl)-2-fluorophenyl)-2,6-difluorobenzenesulfonamide], `CC1(O)CC(N2CC3CCC(C2)N3c2nc(-c3cccc(NS(=O)(=O)c4c(F)cccc4F)c3F)c(-c3ccnc(NC4CC5(C4)CS(=O)(=O)C5)n3)s2)C1` (stereo not shown) [Example 46, N-(3-(5-(2-((2,2-dioxido-2-thiaspiro[3.3]heptan-6-yl)amino)-pyrimidin-4-yl)-2-(3-(3-hydroxy-3-methylcyclobutyl)-3,8-diazabicyclo[3.2.1]octan-8-yl)thiazol-4-yl)-2-fluorophenyl)-2,6-difluorobenzenesulfonamide] is 6-fold lower in IC50: 8.12 µM for the first, 1.36 µM for the second.

First: CN1CC2CCC(C1)N2c1nc(-c2cccc(NS(=O)(=O)c3c(F)cccc3C(F)(F)F)c2F)c(-c2ccnc(NC3[C@H]4CS(=O)(=O)C[C@@H]34)n2)s1 (stereo partly drawn) [Example 111, N-(3-(5-(2-(((1R,5S,6s)-3,3-dioxido-3-thiabicyclo[3.1.0]hexan-6-yl)amino)pyrimidin-4-yl)-2-(3-methyl-3,8-diazabicyclo[3.2.1]octan-8-yl)thiazol-4-yl)-2-fluorophenyl)-2-fluoro-6-(trifluoromethyl)benzenesulfonamide]
Second: C[C@H]1CN(C)C[C@H](C)N1c1nc(-c2cccc(NS(=O)(=O)c3c(F)cccc3C(F)(F)F)c2F)c(-c2ccnc(N[C@H]3[C@@H]4CS(=O)(=O)C[C@@H]43)n2)s1 [Example 124, N-(3-(5-(2-(((1R,5S,6r)-3,3-dioxido-3-thiabicyclo[3.1.0]hexan-6-yl)amino)pyrimidin-4-yl)-2-((2S,6S)-2,4,6-trimethylpiperazin-1-yl)thiazol-4-yl)-2-fluorophenyl)-2-fluoro-6-(trifluoromethyl)benzenesulfonamide]
The IC50 of the first is 2-fold higher: 0.08 µM for the first, 0.04 µM for the second. The second is the more potent here.

Compared with `CS(=O)(=O)[C@H]1CC[C@H](Nc2nccc(-c3sc(C45CC(C(F)F)(C4)C5)nc3-c3cccc(NS(=O)(=O)c4c(F)cccc4C(F)(F)F)c3F)n2)CC1` [Example 134, N-(3-(2-(3-(difluoromethyl)bicyclo[1.1.1]pentan-1-yl)-5-(2-(((1r,4r)-4-(methylsulfonyl)cyclohexyl)amino)pyrimidin-4-yl)thiazol-4-yl)-2-fluorophenyl)-2-fluoro-6-(trifluoromethyl)benzenesulfonamide], `CN1CC2CCC(C1)N2c1nc(-c2cccc(NS(=O)(=O)c3c(F)cccc3C(F)(F)F)c2F)c(-c2ccnc(NC3CC4(C3)CS(=O)(=O)C4)n2)s1` [Example 51, N-(3-(5-(2-((2,2-dioxido-2-thiaspiro[3.3]heptan-6-yl)amino)-pyrimidin-4-yl)-2-(3-methyl-3,8-diazabicyclo[3.2.1]octan-8-yl)thiazol-4-yl)-2-fluorophenyl)-2-fluoro-6-(trifluoromethyl)-benzenesulfonamide] is 2-fold lower in IC50: 0.08 µM for the first, 0.04 µM for the second.

Compared with `C[C@H]1CN(C)C[C@H](C)N1c1nc(-c2cccc(NS(=O)(=O)c3c(F)cccc3C(F)(F)F)c2F)c(-c2ccnc(NC3CC4(C3)CS(=O)(=O)C4)n2)s1` [Example 70, N-(3-(5-(2-((2,2-dioxido-2-thiaspiro[3.3]heptan-6-yl)amino)-pyrimidin-4-yl)-2-((2S,6S)-2,4,6-trimethylpiperazin-1-yl)thiazol-4-yl)-2-fluorophenyl)-2-fluoro-6-(trifluoromethyl)benzenesulfonamide], `COc1cccc(F)c1S(=O)(=O)Nc1cccc(-c2nc(N3C4CCC3CN(C)C4)sc2-c2ccnc(NC3CC4(C3)CS(=O)(=O)C4)n2)c1F` [Example 57, N-(3-(5-(2-((2,2-dioxido-2-thiaspiro[3.3]heptan-6-yl)amino)-pyrimidin-4-yl)-2-(3-methyl-3,8-diazabicyclo[3.2.1]octan-8-yl)thiazol-4-yl)-2-fluorophenyl)-2-fluoro-6-methoxybenzenesulfonamide] is 20-fold higher in IC50: 0.03 µM for the first, 0.6 µM for the second. The first is the more potent here.

First: O=S1(=O)CC2(CC(Nc3nccc(-c4sc(N5C6CCC5CN(C5CC(F)(F)C5)C6)nc4-c4cccc(NS(=O)(=O)c5c(F)cccc5C(F)F)c4F)n3)C2)C1 [Example 50, N-(3-(2-(3-(3,3-difluorocyclobutyl)-3,8-diazabicyclo[3.2.1]octan-8-yl)-5-(2-((2,2-dioxido-2-thiaspiro[3.3]heptan-6-yl)amino)pyrimidin-4-yl)thiazol-4-yl)-2-fluorophenyl)-2-(difluoromethyl)-6-fluorobenzenesulfonamide]
Second: CN(C)C1CC2CCC(C1)N2c1nc(-c2cccc(NS(=O)(=O)c3c(F)cccc3F)c2F)c(-c2ccnc(NC3CC4(C3)CS(=O)(=O)C4)n2)s1 (stereo not shown) [Example 25, N-(3-(2-(3-(dimethylamino)-8-azabicyclo[3.2.1]octan-8-yl)-5-(2-((2,2-dioxido-2-thiaspiro[3.3]heptan-6-yl)amino)pyrimidin-4-yl)thiazol-4-yl)-2-fluorophenyl)-2,6-difluorobenzenesulfonamide]
The IC50 of the first is 8.2-fold lower: 0.19 µM for the first, 1.55 µM for the second. The first is the more potent here.

In the case of `O=S1(=O)CC2(CC(Nc3nccc(-c4sc(C5(C(F)F)CC5)nc4-c4cccc(NS(=O)(=O)c5c(F)cccc5OC(F)F)c4F)n3)C2)C1` [Example 81], the IC50 is reported as 0.14 µM.
